# Columns and labels:
# human TLR7 [1] = target: T1, human TLR7 (Homo sapiens, UniProt Q9NYK1); experiment: TLR7 activation in Namalwa cells (IFN-α1 promoter luciferase reporter, N-TLR7/N-vector); assay type: cell-based; conditions: final IRM concentration 10 μM, 18 hours, normalized to the DMSO without compound control
# T1 construct: expressed in transfected cells; host or cells: Namalwa cells (ATCC CRL-1432), pCI-neo vector, electroporated, G418 selected, with pIFN-α1-luc reporter
# T1 sequence (Q9NYK1 27-1049): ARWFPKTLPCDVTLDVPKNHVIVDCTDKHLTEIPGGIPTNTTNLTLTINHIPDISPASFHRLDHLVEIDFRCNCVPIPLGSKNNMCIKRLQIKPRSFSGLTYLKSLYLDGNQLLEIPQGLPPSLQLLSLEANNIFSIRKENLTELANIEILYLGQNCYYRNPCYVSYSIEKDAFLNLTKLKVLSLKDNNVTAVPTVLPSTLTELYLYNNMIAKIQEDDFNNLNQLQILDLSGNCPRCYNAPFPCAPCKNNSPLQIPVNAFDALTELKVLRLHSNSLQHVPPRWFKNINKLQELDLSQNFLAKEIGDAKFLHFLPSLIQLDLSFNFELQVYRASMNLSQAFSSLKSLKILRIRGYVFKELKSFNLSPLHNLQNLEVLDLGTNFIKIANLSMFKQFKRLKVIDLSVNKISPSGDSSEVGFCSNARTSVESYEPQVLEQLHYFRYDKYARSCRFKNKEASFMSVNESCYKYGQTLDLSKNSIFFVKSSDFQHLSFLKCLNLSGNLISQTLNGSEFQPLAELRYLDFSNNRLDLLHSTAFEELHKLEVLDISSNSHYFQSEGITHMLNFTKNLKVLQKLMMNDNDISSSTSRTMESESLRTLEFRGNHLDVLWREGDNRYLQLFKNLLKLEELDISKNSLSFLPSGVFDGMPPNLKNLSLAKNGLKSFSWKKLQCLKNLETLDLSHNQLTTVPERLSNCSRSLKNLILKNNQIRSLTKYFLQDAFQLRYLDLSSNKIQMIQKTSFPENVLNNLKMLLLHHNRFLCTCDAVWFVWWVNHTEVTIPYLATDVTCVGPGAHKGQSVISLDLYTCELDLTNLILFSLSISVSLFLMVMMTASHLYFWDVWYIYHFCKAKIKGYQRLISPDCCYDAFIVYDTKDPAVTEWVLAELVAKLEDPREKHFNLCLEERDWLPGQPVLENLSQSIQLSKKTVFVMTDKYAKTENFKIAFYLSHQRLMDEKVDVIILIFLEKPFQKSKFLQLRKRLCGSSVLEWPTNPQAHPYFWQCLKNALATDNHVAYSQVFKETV
# Description: (§1) In one embodiment, exemplified in Example 1, selective modulation of TLR7-mediated NF-κB activation and TLR7-mediated IFN-α1 induction were assayed. NF-κB activation was measured in genetically modified HEK293 cells (H-TLR7) by detecting TLR7-mediated NF-κB-dependent transcription of a luciferase reporter. IFN-α1 induction was measured in genetically modified Namalwa cells (N-TLR7) by detecting TLR-mediated IFN-α1-induced transcription of a luciferase reporter. Results are shown in Table 2 and are expressed as the fold increase in TLR7-mediated luciferase signal—(H-TLR7/H-vector) and (N-TLR7/N-vector), respectively—normalized to a control in which the cells were treated with vehicle that contained no IRM compound. In this assay, a compound was considered to induce the TLR7-mediated cellular activity if the compound generated at least a two-fold increase in the luciferase signal compared to the vector control.
# Unless otherwise indicated, all incubations were performed at 37° C. with 5% CO2 at 98% humidity.
# Culture medium was prepared from complete RPMI 1640 medium (BioSource International, Inc., Camarillo, Calif.). Fetal bovine serum (Atlas Biologicals, Inc., Ft. Collins, Colo.) was added to a final concentration of 7.5% (vol/vol); L-glutamine (BioSource International, Inc.) was added to 5 mM; and sodium pyruvate (BioSource International, Inc.) was added to 1 mM.
# Namalwa cells were grown by incubation in culture medium overnight. Cells were harvested by centrifugation in a tabletop centrifuge (1200 RPM for 5 minutes), and then resuspended in phosphate buffered sucrose to a concentration of 1.3×10^7 cells/mL.
# For each transfection, a 750 μL aliquot of the cell suspension was placed in an electroporation cuvette with 4 mm gaps. Each aliquot received transfection DNA: 10 μg of pGL3-Enhancing vector (Promega Corp., Madison, Wis.) containing the human IFN-α1 promoter cloned into the BglII site (pIFN-α1-luc), and 10 μg of pCI-neo mammalian expression vector (Promega Corp.) either (1) unmodified (N-vector) or (2) containing an expressible human TLR7 gene (N-TLR7). The cell and vector mixtures were incubated at room temperature for 5 minutes. The cells were electroporated using a BioRad Gene Pulser (BioRad Laboratories, Hercules, Calif.) set to at 500 μF capacitance and […], then incubated at room temperature for 5 minutes.
# The electroporated cells were suspended in 10 mL of culture medium and incubated overnight. Dead cells and debris were removed after 24 hours using a MACS Dead Cell Removal kit (Miltenyi Biotec, Auburn, Calif.). Cells were resuspended in 10 mL of culture medium and incubated for an additional 24 hours.
# Transfected cells were selected by adding G418 (Promega Corp., Madison, Wisc.) to a final concentration of 1 mg/mL and incubating the cells for seven days.
# The selected transfected cells were counted and resuspended to a concentration of 1×10^6 cell per mL in culture medium. 100 μl aliquots of cells were placed in the wells of a white-walled, white-bottomed 96-well plate (Corning, Inc. Corning, N.Y.). 1.0 μL of an IRM compound from Table 1 (prepared at 1 mM in 100% DMSO) was added to some cell aliquots so that the final concentration of IRM compound was 10 μM. As a positive control, some cell aliquots were incubated with Sendai virus instead of IRM compound. As a negative control, some cell aliquots were incubated with DMSO without IRM compound. In all cases, the cells were incubated for 18 hours.
# The plates were equilibrated to room temperature before 1 volume of reconstituted LucLight Plus (Packard Instruments, Meriden, Conn.) was added to each aliquot of cells. Each well of the plate was read on an LJL Analyst (LJL Biosystems, Inc., Sunnyvale, Calif.) set with a 5 minute dark adapt.
# (§2) The data are expressed as fold increase in TLR7-mediated luciferase signal—(H-TLR7/H-vector) and (N-TLR7/N-vector), respectively—normalized to the DMSO without compound control.
# human TLR7 [2] = target: T1, human TLR7; experiment: TLR7 activation in HEK293 cells (NF-kB-luc luciferase reporter, H-TLR7/H-vector); assay type: cell-based; conditions: final IRM concentration 10 μM, 16 hours, normalized to the DMSO without compound control
# Description: as §1
# HEK293 medium was prepared from 90% Minimum Essential Medium (MEM) with 2 mM L-glutamine and Earle's Balanced Salt Solution (Invitrogen Corp., Rockville, Md.) adjusted to contain 1.5 g/L sodium bicarbonate, 0.1 mM non-essential amino acids, and 1.0 mM sodium pyruvate; 10% heat-inactivated fetal calf serum. HEK293 cells were cultured by incubating cells in HEK293 medium overnight at 37° C, 8% CO2.
# Twenty-four hours before transfection, HEK293 cells were adhered to a 10 cm dish (Corning 430167, Corning Inc., Corning, N.Y.) at 37° C., 8% CO2. The cells were co-transfected with (1) pIRES (BD Biosciences Clontech, Palo Alto, Calif.) either (a) unmodified (H-vector), or (b) containing an expressible human TLR7 gene (H-TLR7), and (2) NF-kB-luc reporter (Stratagene, La Jolla, Calif.) in a 10:1 ratio with Fugene 6 transfection reagent (Roche Diagnostics Corp., Indianapolis, Ind.) following the manufacturer's instructions. The plates were incubated for 24 hours following transfection and then selected in G-418 (400 μg/mL) for two weeks. The G-418-resistant cells containing either the expressible TLR7 gene or the empty vector were expanded in HEK293 medium supplemented with G-418 for stimulation experiments.
# The transfected cells were plated in white opaque 96 well plates (Costar 3917, Corning Inc., Corning, N.Y.) at a concentration of 5×10^4 cells per well in 100 μL of HEK293 media and incubated at 37° C., 8% CO2 for 4 hours. The cells were stimulated with 1 μL of IRM compounds at 1 mM in DMSO (final IRM concentration of 10 μM) or 1 μL DMSO as a control. The plates were then incubated an additional 16 hours at 37° C., 5% CO2. The luciferase signal was read using the LucLite kit (Packard Instrument Co., Meriden, Conn.). Luminescence was measured on an LMAX luminometer (Molecular Devices Corp., Sunnyvale, Calif.).
# as §2
Structure (SMILES),"N-TLR7: fold increase in TLR7-mediated luciferase signal (N-TLR7/N-vector), IFN-α1 promoter reporter (human TLR7 [1])","H-TLR7: fold increase in TLR7-mediated luciferase signal (H-TLR7/H-vector), NF-κB-dependent reporter (human TLR7 [2])"
"Nc1nc2ccccc2c2c1ncn2CCOCC#Cc1csc(C=O)c1 [IRM1, 4-{3-[2-(4-amino-1H-imidazo[4,5-c]quinolin-1-yl)ethoxy]-1-propynyl}-2-thiophenecarboxaldehyde]",1.6 fold,13.2 fold
"Cc1nc2c(N)nc3ccccc3c2n1CCOC/C=C/c1ccccc1 [IRM5, 2-methyl-1-(2-{[(2E)-3-phenylprop-2-enyl]oxy}ethyl)-1H-imidazo[4,5-c]quinolin-4-amine]",1.6 fold,3.4 fold
"COCCc1nc2c(N)nc3ccccc3c2n1CCCNS(=O)(=O)c1ccccc1 [IRM7, N-{3-[4-amino-2-(2-methoxyethyl)-1H-imidazo[4,5-c]-1-yl]propyl}benzenesulfonamide]",1.6 fold,4.7 fold
"CC(C)Cn1c(CO)nc2c(N)nc3c(c21)CCCC3 [IRM8, 2-hydroxymethyl-1-(2-methylpropyl)-6,7,8,9-tetrahydro-1H-imidazo[4,5-c]quinolin-4-amine]",3.0 fold,0.4 fold
"Nc1nc2ccccc2c2c1ncn2CCOCCCc1cncnc1 [IRM12, 1-{2-[3-(5-pyrimidinyl)propoxy]ethyl}-1H-imidazo[4,5-c]quinolin-4-amine]",2.6 fold,0.6 fold

# Other lines, results leading:
"N-TLR7: fold increase in TLR7-mediated luciferase signal (N-TLR7/N-vector), IFN-α1 promoter reporter (human TLR7 [1])","H-TLR7: fold increase in TLR7-mediated luciferase signal (H-TLR7/H-vector), NF-κB-dependent reporter (human TLR7 [2])",Structure (SMILES)
1.5 fold,4.1 fold,"COCCc1nc2c(N)nc3ccccc3c2n1CCCCCCCCNC(=O)Nc1ccccc1 [IRM2, N-{8-[4-amino-2-(2-methoxyethyl)-1H-imidazo[4,5-c]quinolin-1-yl]octyl}-N′-phenylurea]"
1.9 fold,4.2 fold,"CCCCc1nc2c(N)nc3ccccc3c2n1CCCNC(=O)c1cc2ccccc2cn1 [IRM3, N-[3-(4-amino-2-butyl-1H-imidazo[4,5-c]quinolin-1-yl)propyl]isoquinoline-3-carboxamide]"
1.6 fold,15.0 fold,"COCCc1nc2c(N)nc3ccccc3c2n1CC(C)(C)CNC(=O)Nc1ccccc1 [IRM4, N-{3-[4-amino-2-(2-methoxyethyl)-1H-imidazo[4,5-c]quinolin-1-yl]-2,2-dimethylpropyl}-N′-phenylurea]"
1.4 fold,7.1 fold,"CCCCSCCCCn1c(CC)nc2c(N)nc3ccccc3c21 [IRM6, 1-[4-(butylthio)butyl]-2-ethyl-1H-imidazo[4,5-c]quinolin-4-amine]"
2.6 fold,0.7 fold,"CCOCc1nc2c(N)nc3ccccc3c2n1CCC(C)C [IRM9, 2-ethoxymethyl-1-(3-methylbutyl)-1H-imidazo[4,5-c]quinolin-4-amine]"
4.4 fold,1.1 fold,"CCCCc1nc2c(N)nc3ncccc3c2n1CC(C)C [IRM10, 2-butyl-1-(2-methylpropyl)-1H-imidazo[4,5-c][1,8]naphthyridin-4-amine]"
2.8 fold,0.5 fold,"CCCCc1nc2c(N)nc3cccnc3c2n1CCNC(=O)C(N)CC(C)C (stereo not drawn) [IRM11, N^1-[2-(4-amino-2-butyl-1H-imidazo[4,5-c][1,5]naphthyridin-1-yl)ethyl]-2-amino-4-methylpentanamide]"
